The values that follow are results of earlier work, collected in patent publication US20130210624A1, “COMPOSITION FOR IMPROVING PLANT HEALTH AND METHOD OF APPLYING SAME” (priority 2012, published 2013).

The data set relates to oranges. To be noted: single prebloom foliar application; Albrigo 1999.

Regarding phosphite, the flower number result is recorded as “increased flower number” and the yield entry is given as “increased yield”.
